# Measurements published in article PMC6770063, “Utilizing the Combination of Binding Kinetics and Micro-Pharmacokinetics Link in Vitro α-Glucosidase Inhibition to in Vivo Target Occupancy” (Biomolecules, 2019).
# What was measured:
# [1] = tested on: α-Glucosidase (Saccharomyces cerevisiae); experiment: Binding kinetics by reaction progress curve analysis; assay type: biochemical; conditions: for binding mechanism: kobs versus concentration hyperbolic; for Dissociation Half-Life: ln2 divided by koff (progress curve); for time dependence of inhibition: preincubation and progress curves; for Ki: read-out: Ki* (final equilibrium dissociation constant, true affinity)
# Source text: Progress curves were fitted to the equation (Equation (1)) described by Williams and Morrison to calculate kobs values for slow binding (i.e., time-dependent) inhibition. (1) A=vs×t+(vi−vs)(1−e^−kobs×t/kobs)+A0 where A is the absorbance; vi and vs are initial and steady-state velocities (expressed in A/time), respectively; t is time; kobs is the pseudo first order rate constant for the approach to steady-state and A0 is the initial blank absorbance at 405 nm. In order to determine inhibition modality and calculate inhibition constants obtained, steady-state rates from progress curves were subsequently fitted to the following steady-state velocity equation (Equation (2)) described by Robert A. Copeland [34] for noncompetitive inhibition:(2) v=vmax×[S]/[S]×(1+[I]/αKi)+Km×(1+[I]/Ki) where v is velocity; Vmax refers to the maximum velocity; [I] is concentration of inhibition; Km refers to Michaelis constant; α is constant.
# (3) kobs=k4+(k3×[I]/Kiapp+[I]) (4) kon=k3/Ki (5) koff=k4 (6) Ki*=Ki/1+k3/k4 where k3 is forward enzyme isomerization rate constant; k4 is reverse enzyme isomerization rate constant, Ki^app is the apparent value of the Ki for the initial encounter complex. Ki was estimated using the following Cheng-prusoff equation (Equation (7)) as described previously for noncompetitive inhibition:(7) Kiapp=Ki×(1+[S]/Km)/((1+α)×([S]/Km))
# [2] = tested on: α-Glucosidase (Saccharomyces cerevisiae); experiment: Off-rate by rapid dilution approach; assay type: biochemical
# Description: Among these BK parameters, the off-rate value of acarbose was determined by applying the rapid dilution approaches, which were readily available from the references [35, 49].
# [3] = biological target: α-Glucosidase (Saccharomyces cerevisiae); experiment: IC50 determination, AGH enzyme inhibition assay (pNPG substrate); assay type: biochemical; conditions: 15 min preincubation at 37 °C, 0.36 mM pNPG, mean ± SEM of three experiments
# Description: Steady-state kinetic studies were carried out on a Multiskan FC Devices. The AGH activity was assayed by adding 50 μL of AGH solution to 300 μL of substrate solution (pNPG was used as the substrate) in 0.1 M PBS buffer (pH 6.8), followed by incubation at 37 °C for 30 min. The AGH activity was measured by monitoring an increase of the p-nitrophenol (pNP) released from substrate pNPG in absorbance at 405 nm.
# AGH was preincubated with two tea polyphenols for 15 min at 37 °C, respectively. The reaction was started by the addition of the pNPG (0.36 mM final concentration), and the initial rate was measured by ultraviolet (UV) detector. Linearity of UV response was confirmed with correlation coefficients (R^2) of > 0.99. Data were the means ± standard error of the mean (SEM) of three independent experiments, and were fitted using standard four-parameter logistic models to measure IC50 values by JMP software (version 11.0.0, SAS Institute, Inc., Cary, NC, USA).
# [4] = tested on: α-Glucosidase (Saccharomyces cerevisiae); experiment: Surface plasmon resonance (SPR) binding kinetics, immobilized AGH; conditions: 25 °C, 1:1 Langmuir model
# Description: Surface plasmon resonance (SPR) experiments were performed to measure the BK parameters between compounds and AGH. After the activation of the surface using NHS and EDC (1:1, v/v), the AGH was immobilized on a CM5 sensor chip (GE healthcare) by using standard amine-coupling at 25 °C with running buffer PBS-P (20 mM phosphate buffer, […], 0.05% surfactant P-20, pH 7.4). The AGH concentration was fixed at 50 ng/µL and the immobilization level of AGH was about 8000 RU (response unit, 1 RU response value is roughly equivalent to 1 pg/mm^2 change of the concentration of the bound substance on the chip surface). After coupling, unreacted NHS ester groups were blocked with ethanolamine. Different concentrations of compounds containing 5% DMSO were serially injected into the channel to evaluate the BK parameters. A reference channel was only activated and blocked to eliminate compound unspecific binding to the surface of the chip. An extra wash with 50% DMSO was added to remove the last remaining sample in the pipeline. The on-rates and the off-rates of the compounds were obtained by fitting the data sets to 1:1 Langmuir binding model using the Biacore T200 Evaluation Software (GE Healthcare).
# [5] = tested on: α-Glucosidase (Saccharomyces cerevisiae); experiment: Steady-state velocity fit and double reciprocal plot (inhibition type); assay type: biochemical; conditions: for constant α: Equation (2), noncompetitive inhibition; for type of inhibition: double reciprocal plot; for Ki: steady-state velocity fit, read-out: free AGH binding inhibition constant (Ki)
# Description: The reaction progress of AGH inhibition by ECG was measured under the pseudo-first-order conditions ([I], initiated by the addition of 50 μL AGH to 300 μL of a mixture of tested compound and substrate and monitor the liberation of free pNP at 405 nm. The final pNPG concentrations ranged from 0.18 to 1.44 mM. The compound investigated concentrations were 0, 0.7, 1.4, 2.8, 5.6, 11.2 μM. The reading was recorded every 20 s during 4000 s and blank absorbance values were subtracted from the data before subsequent calculations. Similar experiments were performed with EGCG to measure its reaction progress curve. Progress curves were fitted to the equation (Equation (1)) described by Williams and Morrison to calculate kobs values for slow binding (i.e., time-dependent) inhibition. (1) A=vs×t+(vi−vs)(1−e^−kobs×t/kobs)+A0 where A is the absorbance; vi and vs are initial and steady-state velocities (expressed in A/time), respectively; t is time; kobs is the pseudo first order rate constant for the approach to steady-state and A0 is the initial blank absorbance at 405 nm. In order to determine inhibition modality and calculate inhibition constants obtained, steady-state rates from progress curves were subsequently fitted to the following steady-state velocity equation (Equation (2)) described by Robert A. Copeland [34] for noncompetitive inhibition:(2) v=vmax×[S]/[S]×(1+[I]/αKi)+Km×(1+[I]/Ki) where v is velocity; Vmax refers to the maximum velocity; [I] is concentration of inhibition; Km refers to Michaelis constant; α is constant.
# The inhibition type of the tested compounds against AGH was determined using a double reciprocal plot of 1/v as a function of 1/[S] in terms of intersecting lines converging to the location of the y-axis and the x-axis.
# [6] = tested on: α-Glucosidase (Saccharomyces cerevisiae); experiment: Mutual exclusivity study (Yonetani-Theorell); assay type: biochemical; conditions: combination of ECG with EGCG, Equation (8)
# Description: Mutual exclusivity studies were performed by measuring the reaction velocity at several fixed concentrations of one investigated compound while titrating another tested compound with various concentrations, and data were evaluated by the method (Equation (8)) proposed by Yonetanii and Theorell that yielded a value of β for different noncompetitive inhibition by nonlinear regression analysis. (8) 1/vij=1/v0×(1+[I]/Ki+[J]/Kj+[I][J]/βKiKj) where vij is the enzyme velocity in the presence of both compounds at concentrations [I] and [J]; v0 is the velocity in the absence of compound; β is an interaction constant that defines the degree to which binding of one compound perturbs the affinity of the enzyme for the second compound.
# [7] = progress curve analysis, two-step induced-fit model
smiles,measurement,setting,value
"C[C@H]1O[C@H](O[C@H]2[C@H](O)[C@@H](O)[C@@H](O[C@H]3[C@H](O)[C@@H](O)C(O)O[C@@H]3CO)O[C@@H]2CO)[C@H](O)[C@@H](O)[C@@H]1N[C@H]1C=C(CO)[C@@H](O)[C@H](O)[C@H]1O (some centres unmarked) [Acarbose, acarbose]",kon,"[1]; acarbose, Supplementary Table S2",2.1 ± 0.3 10^6 M^−1s^−1
same,Dissociation Half-Life,[2]; ln2 divided by koff (rapid dilution),606 min
same,koff,[2]; rapid dilution approach,1.9 ± 0.2 10^−5 s^−1
"O=C(O[C@@H]1Cc2c(O)cc(O)cc2O[C@@H]1c1ccc(O)c(O)c1)c1cc(O)c(O)c(O)c1 [ECG, Epicatechin gallate]",IC50,[3],1.5 ± 0.3 µM
same,binding mechanism,[1],two-step induced-fit mechanism
same,Dissociation Half-Life,[1],7.2 min
same,time dependence of inhibition,[1],slow binding inhibitor
same,koff,[1]; [7],1.6 ± 0.3 10^−3 s^−1
same,kon,[1]; [7],0.2 ± 0.05 10^3 M^−1s^−1
same,Ki,[1]; progress curve analysis,1 ± 0.3 µM
same,koff,[4],0.0073 s⁻¹
same,kon,[4],6300 M⁻¹ s⁻¹
same,constant α,[5],1.3
same,type of inhibition,[5],noncompetitive inhibitor
same,Ki,[5],1.1 µM
same,β-value (interaction constant),[6],4133197
"O=C(O[C@@H]1Cc2c(O)cc(O)cc2O[C@@H]1c1cc(O)c(O)c(O)c1)c1cc(O)c(O)c(O)c1 [EGCG, epigallocatechin gallate]",IC50,[3],0.41 ± 0.1 µM
same,binding mechanism,[1],two-step induced-fit mechanism
same,Dissociation Half-Life,[1],6 min
same,time dependence of inhibition,[1],slow binding inhibition
same,koff,[1]; [7],1.9 ± 0.2 10^−3 s^−1
same,kon,[1]; [7],2.4 ± 0.3 10^3 M^−1s^−1
same,Ki,[1]; progress curve analysis,0.16 ± 0.03 µM
same,koff,[4],0.0038 s⁻¹
same,kon,[4],5700 M⁻¹ s⁻¹
same,constant α,[5],5.6
same,type of inhibition,[5],noncompetitive inhibitor
same,Ki,[5],0.2 µM
same,β-value (interaction constant),[6],4133197
